Like-named read-outs stand apart in the source and are kept apart here.

In one experiment the test system is Du145. Kind of experiment: MTT cell growth inhibition: Du145. Format: cell-based. The note with it: 72 h; for inhibition at 25 µM: Homo sapiens, DU-145, Du145 prostate carcinoma, read-out: Percentage (%) Cell Growth Inhibition in response to 25 µM of Drug; for Percentage (%) Cell Growth Inhibition in response to 25 µM of Drug: Du145 prostate carcinoma. The procedure: (§1) All test agents were prepared as stock solutions (20 mM) in dimethyl sulfoxide (DMSO) and stored at −20 °C. Cell lines used in the study included HT29 (colorectal carcinoma); U87, SJ-G2, (glioblastoma); MCF-7, (breast carcinoma); A2780 (ovarian carcinoma); H460 (lung carcinoma); A431 (skin carcinoma); Du145 (prostate carcinoma); BE2-C (neuroblastoma); MiaPaCa-2 (pancreatic carcinoma); and SMA560 (spontaneous murine astrocytoma), together with the one non-tumour-derived normal breast cell line (MCF10A). All cell lines were incubated in a humidified atmosphere 5% CO2 at 37 °C. The cancer cell lines were maintained in Dulbecco’s modified Eagle’s medium (DMEM; Sigma, Australia) supplemented with foetal bovine serum (10%), sodium pyruvate (10 mM), penicillin (100 IUmL^−1), streptomycin (100 µg mL^−1) and L-glutamine (2 mM).
(§2) Growth inhibition was determined by plating cells in duplicate in medium (100 µL) at a density of 2500–4000 cells per well in 96-well plates. On day 0 (24 h after plating), when the cells were in logarithmic growth, medium (100 µL) with or without the test agent was added to each well. After 72 h drug exposure, growth inhibitory effects were evaluated using the MTT (3-(4,5-dimethyltiazol-2-yl)-2,5-diphenyltetrazolium bromide) assay and absorbance read at 540 nm. The percentage growth inhibition was calculated at a fixed concentration of 25 µM, based on the difference between the optical density values on day 0 and those at the end of drug exposure. Each data point is the mean ± the standard error of the mean (SEM) calculated from three replicates which were performed on separate occasions and separate cell line passages.

For a further experiment, the system named is almond β-glucosidase. Nature of the experiment: Glycosidase inhibition, laboratory 1: almond β-glucosidase. The format is biochemical. The note with it: methanol. From the text:
(§3) The enzymes α-glucosidase (from yeast), β-glucosidases (from almond and bovine liver), α-galactosidase (from coffee beans), β-galactosidase (from bovine liver), α-mannosidase (from Jack bean), β-mannosidase (from snail), α-L-rhamnosidase (from Penicillium decumbens), α-L-fucosidase (from bovine kidney), trehalase (from porcine kidney), β-glucuronidases (from E. coli and bovine liver), amyloglucosidase (from A. niger), para-nitrophenyl glycosides, and various disaccharides were purchased from Sigma-Aldrich Co (St Louis, MO, USA).
(§4) Brush border membranes were prepared from the rat small intestine according to the method of Kessler et al. and were assayed at pH 6.8 for rat intestinal maltase using maltose. For rat intestinal maltase, porcine kidney trehalase, and A. niger amyloglucosidase activities, the reaction mixture contained 25 mM maltose and the appropriate amount of enzyme, and the incubations were performed for 10–30 min at 37 °C. The reaction was stopped by heating at 100 °C for 3 min. After centrifugation (600× g; 10 min), the resulting reaction mixture was added to the Glucose CII-test Wako (Wako Pure Chemical Ind., Osaka, Japan). The absorbance at 505 nm was measured to determine the amount of the released D-glucose. Other glycosidase activities were determined using an appropriate para-nitrophenyl glycoside as substrate at the optimum pH of each enzyme. The reaction mixture contained 2 mM of the substrate and the appropriate amount of enzyme. The reaction was stopped by addition of 400 mM Na2CO3. The released para-nitrophenol was measured spectrometrically at 400 nm. All reactions run in methanol.

The next experiment addresses T1, Jack bean α-mannosidase (Canavalia ensiformis, UniProt C0HJB3).
T1 construct: purchased Sigma-Aldrich Co
T1 sequence (C0HJB3 1-981): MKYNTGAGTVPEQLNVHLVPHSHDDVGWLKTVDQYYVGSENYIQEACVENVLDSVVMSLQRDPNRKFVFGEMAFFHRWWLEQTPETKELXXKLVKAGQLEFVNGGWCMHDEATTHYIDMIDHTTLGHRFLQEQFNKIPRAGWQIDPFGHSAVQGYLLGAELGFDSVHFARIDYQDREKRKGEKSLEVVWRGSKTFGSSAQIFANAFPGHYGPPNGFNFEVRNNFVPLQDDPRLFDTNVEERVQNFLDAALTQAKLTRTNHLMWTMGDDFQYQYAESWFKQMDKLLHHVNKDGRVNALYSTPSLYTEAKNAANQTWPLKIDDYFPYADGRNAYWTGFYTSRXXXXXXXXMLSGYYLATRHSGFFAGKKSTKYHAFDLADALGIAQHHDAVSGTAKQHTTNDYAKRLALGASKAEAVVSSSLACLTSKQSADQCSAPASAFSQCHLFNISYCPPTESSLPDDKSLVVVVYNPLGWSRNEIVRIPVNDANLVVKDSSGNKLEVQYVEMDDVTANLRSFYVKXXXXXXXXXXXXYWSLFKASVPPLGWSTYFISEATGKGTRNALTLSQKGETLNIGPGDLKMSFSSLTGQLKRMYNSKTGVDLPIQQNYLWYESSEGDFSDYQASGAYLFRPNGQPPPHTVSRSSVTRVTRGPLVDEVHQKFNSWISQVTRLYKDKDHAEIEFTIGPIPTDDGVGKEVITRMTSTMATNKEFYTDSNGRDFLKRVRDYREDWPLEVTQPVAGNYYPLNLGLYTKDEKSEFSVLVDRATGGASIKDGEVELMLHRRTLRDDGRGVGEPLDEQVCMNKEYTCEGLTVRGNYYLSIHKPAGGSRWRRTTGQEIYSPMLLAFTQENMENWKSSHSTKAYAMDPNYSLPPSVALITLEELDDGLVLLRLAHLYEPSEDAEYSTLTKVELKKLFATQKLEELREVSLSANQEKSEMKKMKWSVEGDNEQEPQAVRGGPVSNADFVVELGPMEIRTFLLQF
Nature of the experiment: Glycosidase inhibition, laboratory 2: Jack bean α-mannosidase. Format: biochemical. The note with it: for inhibition at 400 µM: read-out: % inhibition at ~400 μM, water; for % inhibition at ~400 μM: water. The procedure: All enzymes and para-nitrophenyl substrates were purchased from Sigma. Enzymes were assayed at 27 °C in 0.1 M citric acid/0.2 M disodium hydrogen phosphate buffers at the optimum pH for the enzyme. The incubation mixture consisted of 10 μL enzyme solution, 10 μL of 1 mg/mL aqueous solution of extract and 50 μL of the appropriate 5 mM para-nitrophenyl substrate made up in buffer at the optimum pH for the enzyme. The reactions were stopped by addition of 70 μL 0.4 M glycine (pH 10.4) during the exponential phase of the reaction, which had been determined at the beginning using uninhibited assays in which water replaced inhibitor. Final absorbances were read at 405 nm using a Versamax microplate reader (Molecular Devices). Assays were carried out in triplicate, and the values given are means of the three replicates per assay. All reactions run in water.

Another experiment has as its system HT29. Nature of the experiment: MTT cell growth inhibition: HT29. Format: cell-based. As to conditions: 72 h; for inhibition at 25 µM: Homo sapiens, HT-29, HT29 colon carcinoma, read-out: Percentage (%) Cell Growth Inhibition in response to 25 µM of Drug; for Percentage (%) Cell Growth Inhibition in response to 25 µM of Drug: HT29 colon carcinoma. The procedure:
as §1, §2

The target of experiment [1] is T2, A. niger amyloglucosidase (Aspergillus niger, UniProt P69328).
T2 construct: purchased Sigma-Aldrich Co
T2 sequence (P69328 25-640): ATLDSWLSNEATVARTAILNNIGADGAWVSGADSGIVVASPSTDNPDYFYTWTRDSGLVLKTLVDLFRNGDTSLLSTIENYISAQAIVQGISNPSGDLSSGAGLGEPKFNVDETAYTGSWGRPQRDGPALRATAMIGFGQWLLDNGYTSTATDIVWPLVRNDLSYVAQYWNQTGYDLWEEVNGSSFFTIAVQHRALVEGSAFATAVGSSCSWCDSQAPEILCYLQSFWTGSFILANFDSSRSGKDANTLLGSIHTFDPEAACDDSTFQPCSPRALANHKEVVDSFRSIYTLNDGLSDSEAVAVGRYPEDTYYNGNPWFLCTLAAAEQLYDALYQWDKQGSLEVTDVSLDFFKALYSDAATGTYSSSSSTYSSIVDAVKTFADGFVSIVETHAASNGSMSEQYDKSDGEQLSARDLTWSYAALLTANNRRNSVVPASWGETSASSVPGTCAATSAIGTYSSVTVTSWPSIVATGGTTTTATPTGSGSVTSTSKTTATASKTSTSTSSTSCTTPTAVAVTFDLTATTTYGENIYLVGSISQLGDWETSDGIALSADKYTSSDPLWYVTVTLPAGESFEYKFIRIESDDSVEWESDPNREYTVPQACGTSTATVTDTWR
Nature of the experiment: Glycosidase inhibition, laboratory 1: amyloglucosidase. Format: biochemical. The note with it: for inhibition at 10 µM: read-out: inhibition % at 10 μM; for inhibition at 100 µM: read-out: inhibition % at 100 μM.
Text: as §3, §4

For another experiment, the target named is T3, yeast α-glucosidase (Saccharomyces cerevisiae, UniProt P53341).
T3 construct: purchased Sigma
T3 sequence (P53341 whole entry): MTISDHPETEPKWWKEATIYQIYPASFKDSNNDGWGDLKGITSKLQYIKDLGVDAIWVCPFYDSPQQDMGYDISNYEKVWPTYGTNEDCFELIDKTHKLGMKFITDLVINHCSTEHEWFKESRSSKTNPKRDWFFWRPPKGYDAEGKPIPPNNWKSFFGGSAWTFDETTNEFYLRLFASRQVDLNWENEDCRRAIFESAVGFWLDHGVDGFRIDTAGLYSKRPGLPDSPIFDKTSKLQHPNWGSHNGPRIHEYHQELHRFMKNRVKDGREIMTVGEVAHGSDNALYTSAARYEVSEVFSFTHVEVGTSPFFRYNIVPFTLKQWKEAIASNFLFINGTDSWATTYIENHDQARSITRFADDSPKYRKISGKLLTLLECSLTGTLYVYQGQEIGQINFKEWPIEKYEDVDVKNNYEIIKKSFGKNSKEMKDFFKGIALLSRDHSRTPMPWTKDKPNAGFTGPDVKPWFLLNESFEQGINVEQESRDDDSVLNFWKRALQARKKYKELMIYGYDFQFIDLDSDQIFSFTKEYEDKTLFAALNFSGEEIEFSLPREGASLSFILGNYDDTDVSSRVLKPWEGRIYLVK
Nature of the experiment: Glycosidase inhibition, laboratory 1: yeast α-glucosidase. Format: biochemical. The note with it: methanol.
Text: as §3, §4

Where [2] appears, read: A. niger amyloglucosidase, 100 μM, methanol.

For the compound `N[C@@H](Cc1ccc(B(O)O)cc1)C(=O)O` [BPA, 4-borono-L-phenylalanine, reference compound], the inhibition at 25 µM in the experiment on Du145 is 19 ± 10%; in the experiment with HT29, 14%. Further, the “inhibition % at 100 μM” value in the experiment with almond β-glucosidase was “^cNI ^d (0%)”. For the same compound, the inhibition at 400 µM on Jack bean α-mannosidase came to 0.6%.
Take `N[C@@H](Cc1ccc(B(O)O)cc1)C(=O)O` [^10B-BPA, reference compound]: the “inhibition % at 100 μM” value (in experiment [1] (setting [2]); at yeast α-glucosidase (100 μM); in the experiment with almond β-glucosidase) was “^cNI ^d (0%)” in each case. The results for the “Percentage (%) Cell Growth Inhibition in response to 25 µM of Drug” value with Du145 and in the experiment on HT29 were 15 ± 9% and 15 ± 4%, respectively. In addition, on Jack bean α-mannosidase, the “% inhibition at ~400 μM” value is recorded as −0.7%.
Take `CC1(C)OB(c2cccc(CN3C(=O)c4c(Cl)c(Cl)c(Cl)c(Cl)c4C3=O)c2)OC1(C)C` [meta 3, 4,5,6,7-Tetrachloro-2-(3-(4,4,5,5-tetramethyl-1,3,2-dioxaborolan-2-yl)benzyl)isoindoline-1,3-dione]: the figures for the inhibition at 10 µM (in experiment [1]; against yeast α-glucosidase) were 3.2% and 0%, respectively. Moreover, the figures for the inhibition at 25 µM with Du145 and with HT29 were 43 ± 13% and 53 ± 3%, respectively. The “inhibition % at 10 μM” value in the experiment on almond β-glucosidase was “^cNI ^d (5.0%)”. In addition, the inhibition at 400 µM at Jack bean α-mannosidase stood at 30.3%.
For `CC1(C)OB(c2cccc(NC(=O)c3cc(Cl)c(Cl)c(Cl)c3Cl)c2)OC1(C)C` [meta 5, 2,3,4,5-tetrachloro-N-(3-(4,4,5,5-tetramethyl-1,3,2-dioxaborolan-2-yl)phenyl)benzamide], the inhibition at 100 µM was determined as 2.8% in experiment [1] (setting [2]) and 12.8% on yeast α-glucosidase (100 μM). Besides, the inhibition at 25 µM with Du145 is less than 0%; in the experiment with HT29 it was 10 ± 7%. Besides, the “inhibition % at 100 μM” value in the experiment on almond β-glucosidase is “^aNI ^b (30.2%)”. Further, the inhibition at 400 µM on Jack bean α-mannosidase came to 2.2%.
For `CC1(C)OB(c2ccccc2NC(=O)c2cc(Cl)c(Cl)c(Cl)c2Cl)OC1(C)C` [ortho 5, 2,3,4,5-Tetrachloro-N-(2-(4,4,5,5-tetramethyl-1,3,2-dioxaborolan-2-yl)phenyl)benzamide], the inhibition at 10 µM in experiment [1] (A. niger amyloglucosidase, 10 μM, methanol) is 0%; against yeast α-glucosidase it was 0%. The inhibition at 25 µM is greater than 100% in the experiment with Du145 and 98 ± 2% in the experiment on HT29. Moreover, the “inhibition % at 10 μM” value with almond β-glucosidase was “^cNI ^d (11.6%)”. The inhibition at 400 µM at Jack bean α-mannosidase was 0%.
On to `CC1(C)OB(c2ccccc2CNC(=O)c2cc(Cl)c(Cl)c(Cl)c2Cl)OC1(C)C` [ortho 8, 2,3,4,5-tetrachloro-N-(2-(4,4,5,5-tetramethyl-1,3,2-dioxaborolan-2-yl)benzyl)benzamide], for which the inhibition at 100 µM (in experiment [1]; against yeast α-glucosidase (100 μM)) was 0% each time. Moreover, the inhibition at 25 µM with Du145 is less than 0%; with HT29 it was 5 ± 10%. The compound also gave an IC50 against almond β-glucosidase of 254 µM. Moreover, the inhibition at 400 µM at Jack bean α-mannosidase was -6.1%.
Turning to `CC1(C)OB(c2ccc(CN3C(=O)c4c(Cl)c(Cl)c(Cl)c(Cl)c4C3=O)cc2)OC1(C)C` [para 3, 4,5,6,7-Tetrachloro-2-(4-(4,4,5,5-tetramethyl-1,3,2-dioxaborolan-2-yl)benzyl)isoindoline-1,3-dione], the inhibition at 100 µM in experiment [1] was found to be 1%; against yeast α-glucosidase (100 μM), 0%. Also, the inhibition at 25 µM in the experiment on Du145 was greater than 100%; in the experiment on HT29, 99 ± 2%. The “inhibition % at 100 μM” value with almond β-glucosidase is listed as “^aNI ^b (0.7%)”. Also, the inhibition at 400 µM at Jack bean α-mannosidase turned out to be 16.5%.
On to `CC1(C)OB(c2ccc(NC(=O)c3cc(Cl)c(Cl)c(Cl)c3Cl)cc2)OC1(C)C` [para 5, 2,3,4,5-tetrachloro-N-(4-(4,4,5,5-tetramethyl-1,3,2-dioxaborolan-2-yl)phenyl)benzamide], for which the inhibition at 100 µM (in experiment [1] (setting [2]); at yeast α-glucosidase (100 μM)) was 0% throughout. The inhibition at 25 µM in the experiment with Du145 was determined as 1 ± 13%; in the experiment on HT29, 69 ± 7%. Moreover, the “inhibition % at 100 μM” value in the experiment with almond β-glucosidase is reported as “^aNI ^b (17.1%)”. Besides, the inhibition at 400 µM at Jack bean α-mannosidase was -8.2%.
In the case of “Borocaptate sodium [BSH, reference compound]”, the “inhibition % at 1000 μM” value was “^aNI ^b (0%)” in experiment [1] (A. niger amyloglucosidase, 1000 μM, methanol); “^aNI ^b(6.9%)” on yeast α-glucosidase (1000 μM); “^aNI ^b (0%)” in the experiment with almond β-glucosidase (1000 μM). The “Percentage (%) Cell Growth Inhibition in response to 25 µM of Drug” value in the experiment with Du145 was determined as 0 ± 8%; in the experiment with HT29, 3 ± 2%. For the same compound, the “% inhibition at ~400 μM” value on Jack bean α-mannosidase was −18.7%.

Source of the values: article PMC9182199, “Borylated 2,3,4,5-Tetrachlorophthalimide and Their 2,3,4,5-Tetrachlorobenzamide Analogues: Synthesis, Their Glycosidase Inhibition and Anticancer Properties in View to Boron Neutron Capture Therapy” (Molecules, 2022).
